In US20240124483A1, “Methods for the Treatment of Fibrotic Disease” (SHY Therapeutics, LLC, priority 2021, published 2024):
Like-named read-outs stand apart in the source and are kept apart here.

Experiments:
[1] = tested on: Smad2/3 phosphorylation; test: Phospho-Smad2/3 Inhibition Assay in Panc-1 (western blot); assay type: cell-based; conditions: Homo sapiens; for inhibition at 10 µM: 3 hours, PANC-1 stimulated with 10 ng/ml TGF-b1 for 1 hour, read-out: % inh of Smad2/3 phosphorylation in PANC-1
Procedure, shortened: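 Serum-starved cells (0.5% FBS overnight) pretreated 3 h at 37 °C with compound at 10 μM or serial dilutions for IC50, in 0.3% DMSO. TGF-b1 10 ng/ml stimulation: 1 h for Panc-1 (human), 20 min for C2C12 (mouse). Phospho-Smad2 (Ser465/467) and phospho-Smad3 (Ser423/425) measured by western blot of lysates.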

[2] = target: KRas wild type (Homo sapiens (Human), UniProt P01116); test: Ras GTP Binding Domain Inhibition Assay, KRas wild type
Sequence of KRas wild type (P01116 other isoform, or with tags, fused parts or gaps): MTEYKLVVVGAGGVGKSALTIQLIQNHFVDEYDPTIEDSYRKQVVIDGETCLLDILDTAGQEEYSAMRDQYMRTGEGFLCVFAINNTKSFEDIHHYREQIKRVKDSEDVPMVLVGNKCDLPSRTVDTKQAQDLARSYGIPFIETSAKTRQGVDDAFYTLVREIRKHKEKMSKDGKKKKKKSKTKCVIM
Procedure, shortened: (§1)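 Fluorescent GTP binding to plate-captured His-tagged Ras: compound 20 μM (or dilution series for IC50), 3 h RT, ±Sos GEF 10-30 μg/mL last hour; then 100 nM Cy3/Cy5-GTP 45 min RT, wash ×3, read bound label.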

[3] = target: KRas G12D mutant (Homo sapiens (Human), UniProt P01116, G12D); test: Ras GTP Binding Domain Inhibition Assay, KRas G12D mutant; conditions: for inhibition at 20 µM: Table 7; for KRas G12D mutant + SOS: % inh. / KRas G12D mutant: % inh.: 20 uM, Table 8
Sequence of KRas G12D mutant (P01116 other isoform, or with tags, fused parts or gaps G12D): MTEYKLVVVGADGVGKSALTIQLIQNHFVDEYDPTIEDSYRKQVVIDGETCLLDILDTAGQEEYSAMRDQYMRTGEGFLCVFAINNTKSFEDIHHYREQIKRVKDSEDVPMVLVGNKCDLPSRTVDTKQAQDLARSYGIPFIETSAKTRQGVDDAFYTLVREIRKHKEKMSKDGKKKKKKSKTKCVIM
Procedure, shortened: as §1

[4] = target: KRas G12C mutant (Homo sapiens (Human), UniProt P01116, G12C); test: Ras GTP Binding Domain Inhibition Assay, KRas G12C mutant
Sequence of KRas G12C mutant (P01116 other isoform, or with tags, fused parts or gaps G12C): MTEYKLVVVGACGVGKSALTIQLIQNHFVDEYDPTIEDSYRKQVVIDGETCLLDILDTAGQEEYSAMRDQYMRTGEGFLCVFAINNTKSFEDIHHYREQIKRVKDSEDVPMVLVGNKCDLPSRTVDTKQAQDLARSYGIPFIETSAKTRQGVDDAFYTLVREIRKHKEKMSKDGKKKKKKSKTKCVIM
Procedure, shortened: as §1

[5] = target: Rac-1 (Homo sapiens (Human), UniProt P63000); test: Ras GTP Binding Domain Inhibition Assay, Rac-1
Procedure, shortened: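 His-tagged GTPase immobilized on nickel-coated plates (10-30 μg/mL, overnight, 4° C), then exposed to compound (20 μM or serial dilution for IC50, 1% DMSO) for 3 h at room temperature, with or without His-tagged Sos (residues 556-1049) in the final hour. Bound Cy3-GTP or Cy5-GTP (100 nM, 45 min) was read by fluorescence after washing.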

[6] = + SOS, read-out: KRas wild type + SOS: % inh.
[7] = without SOS, read-out: KRas wild type: % inh.
[8] = + SOS, read-out: KRas G12D mutant + SOS: % inh.
[9] = without SOS, read-out: KRas G12D mutant: % inh.
[10] = + SOS, read-out: KRas G12C mutant + SOS: % inh.
[11] = without SOS, read-out: KRas G12C mutant: % inh.
[12] = without SOS, read-out: Rac-1: % inh.
[13] = + SOS, read-out: Rac-1 + SOS: % inh.

Compound	inhibition at 10 µM [1] [%]	inhibition at 20 µM [2, 6] [%]	inhibition at 20 µM [2, 7] [%]	inhibition at 20 µM [3, 8] [%]	KRas G12D mutant + SOS: % inh. ([3]; + SOS)	inhibition at 20 µM [3, 9] [%]	KRas G12D mutant: % inh. ([3]; without SOS)	inhibition at 20 µM [4, 10] [%]	inhibition at 20 µM [4, 11] [%]	inhibition at 20 µM [5, 12] [%]	inhibition at 20 µM [5, 13] [%]	IC50 ([1]; PANC-1, TGF-b1 stimulated) [µM]
COc1cccc(-c2sc3nc(-c4nccn4C)nc(N[C@@H]4CC[C@@H](OC)C4)c3c2-c2ccccc2)c1F (racemic) [Compound 41, 6-(2-Fluoro-3-methoxyphenyl)-N-((1R,3R)-3-methoxycyclopentyl)-2-(1-methyl-1H-imidazol-2-yl)-5-phenylthieno[2,3-d]pyrimidin-4-amine]	76 to 100	76 to 100	26 to 45	46 to 75	C (C = 46-75% inhibition)	1 to 25	A (A = 1-25% inhibition)	76 to 100	26 to 45	1 to 25	–	–
Cc1c(-c2ccn(C(C)C)n2)sc2nc(-c3nccn3C)nc(NCCN3CCOCC3)c12 [Compound 22, 6-(1-Isopropyl-1H-pyrazol-3-yl)-5-methyl-2-(1-methyl-1H-imidazol-2-yl)-N-(2-morpholinoethyl)thieno[2,3-d]pyrimidin-4-amine]	0	76 to 100	76 to 100	76 to 100	D (D = 76-100% inhibition)	76 to 100	D (D = 76-100% inhibition)	76 to 100	76 to 100	76 to 100	–	–
CO[C@H]1C[C@H](CNc2nc(-c3nccn3C)nc3sc(-c4ccn(C(C)C)n4)c(C)c23)C1 [Compound 16, 6-(1-Isopropyl-1H-pyrazol-3-yl)-N-(((1r,3r)-3-methoxycyclobutyl)methyl)-5-methyl-2-(1-methyl-1H-imidazol-2-yl)thieno[2,3-d]pyrimidin-4-amine]	1 to 25	46 to 75	76 to 100	46 to 75	C (C = 46-75% inhibition)	26 to 45	B (B = 26-45% inhibition)	46 to 75	46 to 75	26 to 45	–	–
CO[C@H]1CNC[C@@H](Nc2nc(-c3nccn3C)nc3sc(-c4ccn(C(C)C)n4)cc23)C1 [Compound 28, 6-(1-Isopropyl-1H-pyrazol-3-yl)-N-((3S,5R)-5-methoxypiperidin-3-yl)-2-(1-methyl-1H-imidazol-2-yl)thieno[2,3-d]pyrimidin-4-amine]	0	76 to 100	76 to 100	76 to 100	D (D = 76-100% inhibition)	46 to 75	C (C = 46-75% inhibition)	76 to 100	76 to 100	46 to 75	–	–
COCCN(C)c1nc(-c2nccn2C)nc2sc(-c3ccccc3)c(-c3ccccc3)c12 [Compound 2, N-(2-Methoxyethyl)-N-methyl-2-(1-methyl-1H-imidazol-2-yl)-5,6-diphenylthieno[2,3-d]pyrimidin-4-amine]	0	–	46 to 75	–	–	46 to 75	C (C = 46-75% inhibition)	–	26 to 45	26 to 45	–	–
COCCn1ccnc1-c1nc(N[C@H]2C[C@@H](OC)C2)c2c(-c3ccccc3)c(-c3ccn(C)n3)sc2n1 [Compound 13, N-((1s,3s)-3-methoxycyclobutyl)-2-(1-(2-methoxyethyl)-1H-imidazol-2-yl)-6-(1-methyl-1H-pyrazol-3-yl)-5-phenylthieno[2,3-d]pyrimidin-4-amine]	46 to 75	76 to 100	76 to 100	76 to 100	D (D = 76-100% inhibition)	46 to 75	C (C = 46-75% inhibition)	76 to 100	76 to 100	76 to 100	76 to 100	–
Cc1c(-c2ccn(C(C)C)n2)sc2nc(-c3nccn3C)nc(NCC3CN(C)CCO3)c12 (racemic) [Compound 25, rac-6-(1-Isopropyl-1H-pyrazol-3-yl)-5-methyl-2-(1-methyl-1H-imidazol-2-yl)-N-((4-methylmorpholin-2-yl)methyl)thieno[2,3-d]pyrimidin-4-amine]	0	76 to 100	76 to 100	76 to 100	D (D = 76-100% inhibition)	76 to 100	D (D = 76-100% inhibition)	76 to 100	76 to 100	76 to 100	–	–
CO[C@H]1CC[C@@H](Nc2nc(-c3nccn3C)nc3sc(-c4ccn(C)n4)c(-c4ccccc4)c23)C1 (racemic) [Compound 5, rac-N-((1R,3S)-3-Methoxycyclopentyl)-2-(1-methyl-1H-imidazol-2-yl)-6-(1-methyl-1H-pyrazol-3-yl)-5-phenylthieno[2,3-d]pyrimidin-4-amine]	76 to 100	76 to 100	26 to 45	46 to 75	C (C = 46-75% inhibition)	1 to 25	A (A = 1-25% inhibition)	76 to 100	26 to 45	46 to 75	46 to 75	5 to 10
